US10383848B2, “Indole-based therapeutics” (Creighton University, priority 2016, dated 2019)
In brackets after ≈: the same amount, converted by molar mass.

Legend:
Type in all cases: cell-based
M. xenopi WT = test: MIC, resazurin microtiter assay; details: Mycobacterium xenopi, Mueller Hinton II; read-out: MIC M. xenopi WT
M. bolletii ATCC 14472 = test: MIC, resazurin microtiter assay; details: Mycobacteroides abscessus, ATCC14472, Mueller Hinton II; read-out: MIC M. bolletii ATCC 14472
M. abscessus ATCC 19977 = test: MIC, resazurin microtiter assay; details: Mycobacteroides abscessus, ATCC19977; Mueller Hinton II; read-out: MIC M. abscessus ATCC 19977
M. massiliense CRM 0019 = test: MIC, resazurin microtiter assay; details: Mycobacteroides abscessus, CRM0019, Mueller Hinton II; read-out: MIC M. massiliense CRM 0019
M. avium 104 = test: MIC, resazurin microtiter assay; details: Mycobacterium avium, 104; Mueller Hinton II; read-out: MIC M. avium 104
[1] = test system: M. massiliense CIP 108297; test: MIC, resazurin microtiter assay; details: Mycobacteroides abscessus, CIP108297, Mueller Hinton II; read-out: MIC M. massiliense CIP 108297
M. abscessus DCI #21 = test: MIC, resazurin microtiter assay; details: Mycobacteroides abscessus; Mueller Hinton II; read-out: MIC M. abscessus DCI #21
M. intracellulare 1956 = test: MIC, resazurin microtiter assay; details: Mueller Hinton II; read-out: MIC M. avium Intracellulare 1956
M. chelonae ATCC 35752 = test: MIC, resazurin microtiter assay; details: Mycobacteroides chelonae, ATCC35752, Mueller Hinton II; read-out: MIC M. chelonae ATCC 35752
M. smegmatis mc^2155 = test: MIC, resazurin microtiter assay; details: Mycolicibacterium smegmatis, MC^2155, 7H9-ADC-0.05% Tween 80; read-out: MIC M. smeg. mc^2155
[2] = test system: M. tuberculosis H37Rv mc^26206; test: microbe, parasite or virus in culture; details: Mycobacterium tuberculosis, H37RV; read-out: MIC M. tb H37 Rv (mc2-6206)

SMILES | MIC (M. xenopi WT) [µg/mL] | MIC (M. bolletii ATCC 14472) [µg/mL] | MIC (M. abscessus ATCC 19977) [µg/mL] | MIC (M. massiliense CRM 0019) [µg/mL] | MIC (M. avium 104) [µg/mL] | MIC [1] [µg/mL] | MIC (M. abscessus DCI #21) [µg/mL] | MIC (M. intracellulare 1956) [µg/mL] | MIC (M. chelonae ATCC 35752) [µg/mL] | MIC (M. smegmatis mc^2155) [µg/mL] | MIC [2] [µg/mL]
Cc1cc(C)c2cc(C(=O)NC3CCCCC3)[nH]c2c1 [Compound 27, N-cyclohexyl-4,6-dimethyl-1H-indole-2-carboxamide] | 1 to 2 (≈ 3.7 to 7.4 µM) | 0.25 (≈ 0.925 µM) | 0.5 (≈ 1.85 µM) | 0.25 (≈ 0.925 µM) | > 32 | 0.25 (≈ 0.925 µM) | 0.25 (≈ 0.925 µM) | > 32 | 0.25 (≈ 0.925 µM) | 2.5 (≈ 9.25 µM) | 
CCCCCCCCNC(=O)c1cc2c(C)cc(C)cc2[nH]1 [Compound 33, N-octyl-4,6-dimethyl-1H-indole-2-carboxamide] | > 32 | > 32 | > 32 | > 32 | > 32 | > 32 | > 32 | > 32 | > 32 | 2.5 to 5 (≈ 8.32 to 16.6 µM) | > 20
CCC12CC3CC(C1)CC(NC(=O)c1cc4c(C)cc(C)cc4[nH]1)(C3)C2 [Compound 21, N-(3-ethyl-1-adamantyl)-4,6-dimethyl-1H-indole-2-carboxamide] | > 32 | > 32 | > 32 | > 32 | > 32 | > 32 | > 32 | > 32 | > 32 | > 20 | 
Cc1cc(C)c2cc(C(=O)NCC34CC5CC(CC(C5)C3)C4)[nH]c2c1 [Compound 23, N-(1-(1-adamantyl)methyl)-4,6-dimethyl-1H-indole-2-carboxamide] | 1 (≈ 2.97 µM) | > 32 | > 32 | > 32 | > 32 | > 32 | > 32 | > 32 | > 32 | > 20 | 
O=C(NC1CCCCCCC1)c1cc2ccccc2[nH]1 [Compound 10, N-cyclooctyl-1H-indole-2-carboxamide] | 2 (≈ 7.4 µM) | 32 (≈ 118 µM) | > 32 | 32 (≈ 118 µM) | > 32 | > 32 | > 32 | > 32 | > 32 | 25 (≈ 92.5 µM) | 0.39 (≈ 1.44 µM)
Cc1cc(C)c2cc(C(=O)NCc3cccc(Cl)c3)[nH]c2c1 [Compound 34, N-(3-chlorobenzyl)-4,6-dimethyl-1H-indole-2-carboxamide] |  | > 32 | > 32 | > 32 |  | > 32 | > 32 |  | > 32 | > 20 | > 5
Cc1cc(C)c2cc(C(=O)NC(C)C34CC5CC(CC(C5)C3)C4)[nH]c2c1 (stereo not drawn) [Compound 22, N-(1-(1-adamantyl)ethyl)-4,6-dimethyl-1H-indole-2-carboxamide] | > 32 | 16 (≈ 45.6 µM) | 16 (≈ 45.6 µM) | 8 (≈ 22.8 µM) | > 32 | 8 (≈ 22.8 µM) | > 32 | > 32 | 16 (≈ 45.6 µM) | > 20 | 
O=C(NC1CCCCCC1)c1cc2ccccc2[nH]1 [Compound 11, N-cycloheptyl-1H-indole-2-carboxamide] |  | > 32 | > 32 | > 32 |  | > 32 | > 32 |  | > 32 | > 20 | > 5
CCCCCCCCNC(=O)c1cc2ccccc2[nH]1 [Compound 18, N-octyl-1H-indole-2-carboxamide] |  | > 32 | > 32 | > 32 |  | > 32 | > 32 |  | > 32 | > 25 | > 10
O=C(NC1CCCCC1)c1cc2ccccc2[nH]1 [Compound 12, N-cyclohexyl-1H-indole-2-carboxamide] |  | > 32 | > 32 | > 32 |  | > 32 | > 32 |  | > 32 | > 25 | > 10
Cc1cc(C)c2cc(C(=O)NC34CC5CC(CC(C5)C3)C4)[nH]c2c1 [Compound 20, N-1-adamantyl-4,6-dimethyl-1H-indole-2-carboxamide] | > 32 | > 32 | > 32 | > 32 | > 32 | > 32 | 32 (≈ 99.2 µM) | > 32 | > 32 | 1.25 to 2.5 (≈ 3.88 to 7.75 µM) | 
Cc1cc(C)c2cc(C(=O)NC3C4CC5CC(C4)CC3C5)[nH]c2c1 (stereo not drawn) [Compound 24, N-2-adamantyl-4,6-dimethyl-1H-indole-2-carboxamide] | 0.5 to 1 (≈ 1.55 to 3.1 µM) | > 32 | > 32 | > 32 | > 32 | > 32 | > 32 | > 32 | > 32 | > 20 | 
O=C(NCc1cccc(Cl)c1)c1cc2ccccc2[nH]1 [Compound 19, N-(3-chlorobenzyl)-1H-indole-2-carboxamide] |  | > 32 | > 32 | > 32 |  | > 32 | > 32 |  | > 32 | > 20 | > 5
O=C(NC1CCCC1)c1cc2ccccc2[nH]1 [Compound 13, N-cyclopentyl-1H-indole-2-carboxamide] |  | > 32 | > 32 | > 32 |  | > 32 | > 32 |  | > 32 | > 25 | > 10
CCCCCCCNC(=O)c1cc2ccccc2[nH]1 [Compound 17, N-heptyl-1H-indole-2-carboxamide] |  | > 32 | > 32 | > 32 |  | > 32 | > 32 |  | > 32 | > 25 | > 10
CC1CCC(NC(=O)c2cc3ccccc3[nH]2)CC1 (stereo not drawn) [Compound 14, N-((1s,4s)-4-methylcyclohexyl)-1H-indole-2-carboxamide] |  | > 32 | > 32 | > 32 |  | > 32 | > 32 |  | > 32 | > 25 | > 10
Cc1cc(C)c2cc(C(=O)NC3CCC(C)CC3)[nH]c2c1 (stereo not drawn) [Compound 29, 4,6-dimethyl-N-((1s,4s)-4-methylcyclohexyl)-1H-indole-2-carboxamide] | 0.25 to 1 (≈ 0.879 to 3.52 µM) | ≤ 0.06 | ≤ 0.06 | ≤ 0.06 | > 32 | ≤ 0.06 | ≤ 0.06 | > 32 | ≤ 0.06 | > 20 | 
